Reference: ChEMBL document CHEMBL4190198, “Celastrofurans A-G: Dihydro-β-agarofurans from the Australian Rainforest Vine Celastrus subspicata and Their Inhibitory Effect on Leucine Transport in Prostate Cancer Cells” (J Nat Prod, 2017)

Assay: Inhibition of L-type amino acid transporter in human LNCAP cells assessed as reduction in [3H]-L-Leucine uptake after 15 mins by liquid scintillation counting method
Type: cell-based

Row | Structure (SMILES) | IC50 [µM]
1 | CC(=O)O[C@@H]1C[C@@H](C)[C@@]23C[C@@H]([C@@H](O)[C@H](OC(=O)c4ccccc4)[C@]2(C)[C@H]1OC(=O)c1ccccc1)C(C)(C)O3 | 82.3
2 | CC(=O)O[C@@H]1C[C@@H](C)[C@@]23C[C@@H](C(=O)[C@H](OC(=O)c4ccccc4)[C@]2(C)[C@H]1OC(=O)c1ccoc1)C(C)(C)O3 | 13.4
3 | CC(=O)O[C@@H]1C[C@@H](C)[C@@]23C[C@@H](C[C@H](OC(=O)c4ccccc4)[C@]2(C)[C@H]1OC(=O)c1ccoc1)C(C)(C)O3 | 34.5
4 | CC(=O)O[C@@H]1[C@@H]2C[C@]3(OC2(C)C)[C@H](C)C[C@@H](OC(C)=O)[C@H](OC(=O)c2ccoc2)[C@@]3(C)[C@H]1OC(=O)c1ccccc1 | 15.2
5 | C[C@@H]1CC[C@H](OC(=O)c2ccccc2)[C@@]2(C)[C@@H](OC(=O)c3ccccc3)C[C@@H]3C[C@]12OC3(C)C | 27.6
6 | CC(=O)O[C@@H]1C[C@@H](C)[C@@]23C[C@@H]([C@@H](O)[C@H](OC(=O)c4ccccc4)[C@]2(C)[C@H]1OC(=O)c1ccoc1)C(C)(C)O3 | 98.9
7 | CC(=O)O[C@@H]1C[C@@H](C)[C@@]23C[C@@H](C[C@H](OC(=O)c4ccoc4)[C@]2(C)[C@H]1OC(=O)c1ccoc1)C(C)(C)O3 | 75.3
8 | CC(=O)O[C@@H]1C[C@@H](C)[C@@]23C[C@@H](C[C@H](OC(=O)c4ccccc4)[C@]2(C)[C@H]1OC(=O)c1ccccc1)C(C)(C)O3 | 7
9 | C[C@@H]1CC[C@H](OC(=O)c2ccoc2)[C@@]2(C)[C@@H](OC(=O)c3ccccc3)C[C@@H]3C[C@]12OC3(C)C | 19.7
